Source: ChEMBL document CHEMBL1158275, “Isolation of two new antiinflammatory biflavanoids from Sarcophyte piriei” (J Nat Prod, 1996)

Experiments:
[1] = Inhibition of prostaglandin synthesis in bovine seminal vesicle microsomes using [14C]arachidonic acid; assay type: functional, Bos taurus, Microsome
Neutrophil = assay: Inhibition of PAF-induced exocytosis in neutrophil by spectrophotometer; assay type: functional, cell-based

| IC50 [1] [µg/mL] | IC50 ([1]; read-out: IC50) [µM] | IC50 (Neutrophil) [µM] | SMILES |
| --- | --- | --- | --- |
|  | 13.1 | 39 | O=C1C[C@H](c2ccc(O)cc2)Oc2c1c(O)cc1c2[C@@H]2C[C@@](c3ccc(O)c(O)c3)(Oc3cc(O[C@@H]4O[C@H](CO)[C@@H](O)[C@H](O)[C@H]4O)cc(O)c32)O1 [DIINSININ] |
|  |  | 80 | C[C@@H]1C(=O)O[C@H]2[C@H](O)[C@@]34[C@H]5C[C@@H](C(C)(C)C)[C@]36[C@@H](OC(=O)[C@@H]6O)O[C@@]4(C(=O)O5)[C@@]12O [GINKOLIDE B] |
|  | 0.56 |  | COc1ccc2c(c1)c(CC(=O)O)c(C)n2C(=O)c1ccc(Cl)cc1 [INDOMETHACIN] |

More lines, now with the values behind:

| SMILES | IC50 [1] [µg/mL] | IC50 ([1]; read-out: IC50) [µM] | IC50 (Neutrophil) [µM] |
| --- | --- | --- | --- |
| CC(=O)Oc1ccccc1C(=O)O [ASPIRIN] | 200 |  |  |
| O=C1C[C@H](c2ccc(O)c(O)c2)Oc2c1c(O)cc1c2[C@@H]2C[C@@](c3ccc(O)c(O)c3)(Oc3cc(O[C@@H]4O[C@H](CO)[C@@H](O)[C@H](O)[C@H]4O)cc(O)c32)O1 [DIINSININOL] |  | 9.2 | 49 |
